Reference: patent publication US20230122344A1, “ANTAGONISTS OF THE MUSCARINIC ACETYLCHOLINE RECEPTOR M4” (Vanderbilt University, priority 2019, published 2023)

Molecular target: T1, Human M4 (Homo sapiens, UniProt P08173)
T1 construct: expressed in transfected cells; host or cells: CHO-K1 (ATCC), co-transfected with chimeric G protein Gqi5
T1 sequence (P08173 1-479): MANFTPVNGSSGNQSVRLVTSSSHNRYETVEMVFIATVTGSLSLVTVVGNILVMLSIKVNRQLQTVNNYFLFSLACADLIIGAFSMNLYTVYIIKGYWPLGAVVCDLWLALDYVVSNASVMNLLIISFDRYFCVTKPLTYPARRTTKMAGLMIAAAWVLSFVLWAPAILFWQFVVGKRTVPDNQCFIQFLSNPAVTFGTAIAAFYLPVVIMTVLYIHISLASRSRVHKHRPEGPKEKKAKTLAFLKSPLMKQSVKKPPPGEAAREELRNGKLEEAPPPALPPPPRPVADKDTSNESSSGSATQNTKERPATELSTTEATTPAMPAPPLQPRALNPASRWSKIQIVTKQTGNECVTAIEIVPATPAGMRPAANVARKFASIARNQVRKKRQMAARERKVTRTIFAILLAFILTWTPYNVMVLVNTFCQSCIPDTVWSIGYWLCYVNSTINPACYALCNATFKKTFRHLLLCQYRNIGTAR
Experiment: mAChR M4 cell-based functional assay (calcium flux, antagonism of EC80 acetylcholine response)
Settings: M4/Gqi5/CHO-K1 cells; for remaining activity at 30 µM: CHO-K1, % ACh maximum at 30 μM, read-out: Human M4 Emin; for IC50: decrease of response elicited by EC80 acetylcholine
Outline: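 CHO-K1 cells stably expressing human or rat M4 with Gqi5, Fluo-4 loaded; calcium measured by fluorescence ratio on FDSS. Compound added, then EC20 acetylcholine at 143 s and EC80 at 268 s; IC50 from decrease of EC80 response, four-parameter logistic fit.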

Fc1cc(F)c(F)c(-c2nnc(N[C@H]3C[C@@H]4CN(CCC5CCOCC5)C[C@@H]4C3)cc2C(F)F)c1 [compound 52, (3aR,5s,6aS)-N-(5-(difluoromethyl)-6-(2,3,5-trifluorophenyl)pyridazin-3-yl)-2-(2-(tetrahydro-2H-pyran-4-yl)ethyl)octahydrocyclopenta[c]pyrrol-5-amine]
remaining activity at 30 µM: 2%
IC50: 1.05 nM

Fc1cc(F)c(F)c(-c2nnc(N[C@H]3C[C@@H]4CN(CC5CCCCC5)C[C@@H]4C3)cc2C(F)F)c1 [compound 53, (3aR,5s,6aS)-2-(cyclohexylmethyl)-N-(5-(difluoromethyl)-6-(2,3,5-trifluorophenyl)pyridazin-3-yl)octahydrocyclopenta[c]pyrrol-5-amine]
remaining activity at 30 µM: 2%
IC50: 19.1 nM

OC1(CN2C[C@H]3C[C@H](Nc4cc(C(F)F)c(-c5cc(F)cc(F)c5F)nn4)C[C@H]3C2)CCCCC1 [compound 54, 1-(((3aR,5s,6aS)-5-((5-(difluoromethyl)-6-(2,3,5-trifluorophenyl)pyridazin-3-yl)amino)hexahydrocyclopenta[c]pyrrol-2(1H)-yl)methyl)cyclohexan-1-ol]
remaining activity at 30 µM: 1%
IC50: 3.42 nM

OC1(CN2C[C@H]3C[C@H](Nc4cc(C(F)F)c(-c5cc(F)cc(F)c5F)nn4)C[C@H]3C2)CCOCC1 [compound 55, 4-(((3aR,5s,6aS)-5-((5-(difluoromethyl)-6-(2,3,5-trifluorophenyl)pyridazin-3-yl)amino)hexahydrocyclopenta[c]pyrrol-2(1H)-yl)methyl)tetrahydro-2H-pyran-4-ol]
remaining activity at 30 µM: 2%
IC50: 3.12 nM

Fc1cc(F)c(F)c(-c2nnc(N[C@H]3C[C@@H]4CN(C[C@@H]5COCCO5)C[C@@H]4C3)cc2C(F)F)c1 [compound 56, (3aR,5s,6aS)-2-(((R)-1,4-dioxan-2-yl)methyl)-N-(5-(difluoromethyl)-6-(2,3,5-trifluorophenyl)pyridazin-3-yl)octahydrocyclopenta[c]pyrrol-5-amine]
remaining activity at 30 µM: 2%
IC50: 0.66 nM

Fc1cc(F)c(F)c(-c2nnc(N[C@H]3C[C@@H]4CN(C[C@H]5COCCO5)C[C@@H]4C3)cc2C(F)F)c1 [compound 57, (3aR,5s,6aS)-2-(((S)-1,4-dioxan-2-yl)methyl)-N-(5-(difluoromethyl)-6-(2,3,5-trifluorophenyl)pyridazin-3-yl)octahydrocyclopenta[c]pyrrol-5-amine]
remaining activity at 30 µM: 3%
IC50: 15.5 nM

Fc1ccc(F)c(-c2cc(C(F)F)c(N[C@H]3C[C@@H]4CN(CC5CCOCC5)C[C@@H]4C3)nn2)c1 [compound 58, (3aR,5s,6aS)-N-(4-(difluoromethyl)-6-(2,5-difluorophenyl)pyridazin-3-yl)-2-((tetrahydro-2H-pyran-4-yl)methyl)octahydrocyclopenta[c]pyrrol-5-amine]
remaining activity at 30 µM: 3%
IC50: 6.42 nM

Cc1ccc(F)cc1-c1cc(C(F)F)c(N[C@H]2C[C@@H]3CN(CC4CCOCC4)C[C@@H]3C2)nn1 [compound 59, (3aR,5s,6aS)-N-(4-(difluoromethyl)-6-(5-fluoro-2-methylphenyl)pyridazin-3-yl)-2-((tetrahydro-2H-pyran-4-yl)methyl)octahydrocyclopenta[c]pyrrol-5-amine]
remaining activity at 30 µM: 3%
IC50: 1.2 nM

[2H]C([2H])(C1CCOCC1)N1C[C@H]2C[C@H](Nc3nnc(-c4cc(F)ccc4F)c(C)c3C)C[C@H]2C1 [compound 60, (3aR,5s,6aS)-N-(6-(2,5-difluorophenyl)-4,5-dimethylpyridazin-3-yl)-2-((tetrahydro-2H-pyran-4-yl)methyl-d2)octahydrocyclopenta[c]pyrrol-5-amine]
remaining activity at 30 µM: 2%
IC50: 0.66 nM

[2H]C([2H])(C1CCOCC1)N1C[C@H]2C[C@H](Nc3nnc(-c4ccccc4F)c(C)c3C)C[C@H]2C1 [compound 61, (3aR,5s,6aS)-N-(6-(2-fluorophenyl)-4,5-dimethylpyridazin-3-yl)-2-((tetrahydro-2H-pyran-4-yl)methyl-d2)octahydrocyclopenta[c]pyrrol-5-amine]
remaining activity at 30 µM: 2%
IC50: 0.52 nM

[2H]C([2H])(C1CCOCC1)N1C[C@H]2C[C@H](Nc3nnc(-c4cccc(F)c4)c(C)c3C)C[C@H]2C1 [compound 62, (3aR,5s,6aS)-N-(6-(3-fluorophenyl)-4,5-dimethylpyridazin-3-yl)-2-((tetrahydro-2H-pyran-4-yl)methyl-d2)octahydrocyclopenta[c]pyrrol-5-amine]
remaining activity at 30 µM: 2%
IC50: 0.71 nM

[2H]C([2H])(C1CCOCC1)N1C[C@H]2C[C@H](Nc3nnc(-c4cc(F)ccc4C)c(C)c3C)C[C@H]2C1 [compound 63, (3aR,5s,6aS)-N-(6-(5-fluoro-2-methylphenyl)-4,5-dimethylpyridazin-3-yl)-2-((tetrahydro-2H-pyran-4-yl)methyl-d2)octahydrocyclopenta[c]pyrrol-5-amine]
remaining activity at 30 µM: 2%
IC50: 0.92 nM

Cc1c(-c2cc(F)ccc2F)nnc(N[C@H]2C[C@@H]3CN(CC4CCOCC4)C[C@@H]3C2)c1C#N [compound 64, 6-(2,5-difluorophenyl)-5-methyl-3-(((3aR,5s,6aS)-2-((tetrahydro-2H-pyran-4-yl)methyl)octahydrocyclopenta[c]pyrrol-5-yl)amino)pyridazine-4-carbonitrile]
remaining activity at 30 µM: 3%
IC50: 7.69 nM

Cc1c(Cl)nnc(N[C@H]2C[C@@H]3CN(CC4CCOCC4)C[C@@H]3C2)c1C#N [compound 65, 6-chloro-5-methyl-3-(((3aR,5s,6aS)-2-((tetrahydro-2H-pyran-4-yl)methyl)octahydrocyclopenta[c]pyrrol-5-yl)amino)pyridazine-4-carbonitrile]
remaining activity at 30 µM: 8%
IC50: 2930 nM

Cc1c(-c2cc(F)ccc2F)nnc(N[C@H]2C[C@@H]3CN(C[C@H]4CC5CCC4O5)C[C@@H]3C2)c1C#N (stereo partly drawn) [compound 66, 3-(((3aR,5s,6aS)-2-(((2R)-7-oxabicyclo[2.2.1]heptan-2-yl)methyl)octahydrocyclopenta[c]pyrrol-5-yl)amino)-6-(2,5-difluorophenyl)-5-methylpyridazine-4-carbonitrile]
remaining activity at 30 µM: 3%
IC50: 17.9 nM

Cc1c(-c2cc(F)ccc2Cl)nnc(N[C@H]2C[C@@H]3CN(CC4CCOCC4)C[C@@H]3C2)c1C#N [compound 67, 6-(2-chloro-5-fluorophenyl)-5-methyl-3-(((3aR,5s,6aS)-2-((tetrahydro-2H-pyran-4-yl)methyl)octahydrocyclopenta[c]pyrrol-5-yl)amino)pyridazine-4-carbonitrile]
remaining activity at 30 µM: 2%
IC50: 0.83 nM

Cc1c(-c2ccccc2F)nnc(N[C@H]2C[C@@H]3CN(CC4CCOCC4)C[C@@H]3C2)c1C#N [compound 68, 6-(2-fluorophenyl)-5-methyl-3-(((3aR,5s,6aS)-2-((tetrahydro-2H-pyran-4-yl)methyl)octahydrocyclopenta[c]pyrrol-5-yl)amino)pyridazine-4-carbonitrile]
remaining activity at 30 µM: 3%
IC50: 0.97 nM

Cc1c(-c2cccc(F)c2)nnc(N[C@H]2C[C@@H]3CN(CC4CCOCC4)C[C@@H]3C2)c1C#N [compound 69, 6-(3-fluorophenyl)-5-methyl-3-(((3aR,5s,6aS)-2-((tetrahydro-2H-pyran-4-yl)methyl)octahydrocyclopenta[c]pyrrol-5-yl)amino)pyridazine-4-carbonitrile]
remaining activity at 30 µM: 3%
IC50: 8.42 nM

[2H]C([2H])(C1CCOCC1)N1C[C@H]2C[C@H](Nc3nnc(-c4ccc(F)cc4)c(C)c3C)C[C@H]2C1 [compound 70, (3aR,5s,6aS)-N-(6-(4-fluorophenyl)-4,5-dimethylpyridazin-3-yl)-2-((tetrahydro-2H-pyran-4-yl)methyl-d2)octahydrocyclopenta[c]pyrrol-5-amine]
remaining activity at 30 µM: 11%
IC50: 24.1 nM

[2H]C([2H])(C1CCOCC1)N1C[C@H]2C[C@H](Nc3nnc(-c4ccc5ccccc5c4)c(C)c3C)C[C@H]2C1 [compound 71, (3aR,5s,6aS)-N-(4,5-dimethyl-6-(naphthalen-2-yl)pyridazin-3-yl)-2-((tetrahydro-2H-pyran-4-yl)methyl-d2)octahydrocyclopenta[c]pyrrol-5-amine]
remaining activity at 30 µM: 2%
IC50: 12.7 nM

Cc1c(-c2ccc3nn(C)cc3c2)nnc(N[C@H]2C[C@@H]3CN(CC4CCOCC4)C[C@@H]3C2)c1C#N [compound 72, 5-methyl-6-(2-methyl-2H-indazol-5-yl)-3-(((3aR,5s,6aS)-2-((tetrahydro-2H-pyran-4-yl)methyl)octahydrocyclopenta[c]pyrrol-5-yl)amino)pyridazine-4-carbonitrile]
remaining activity at 30 µM: 4%
IC50: 0.91 nM
